Data published in patent publication US5714347A (priority 1995, dated 1998).
Read-outs that look alike come from different tables or passages of the source.

Assays:
[1] = test system: rabbit reticulocyte ubiquitin activating enzyme (E1); format: biochemical
Description: The incorporation of ^32 PPi into ATP was measured by adsorbing the resulting ^32 P-labeled ATP onto charcoal and counting the bound radioactivity by Cerenkov radiation (Haas, A. L. and Rose, I. A., supra, 1982). Nonspecifically-bound ^32 PPi was corrected by subtracting radioactivity in control incubations conducted in the absence of added E1 (Haas, A. L. and Rose, I. A., supra, 1982).
Since these measurements were conducted in the absence of added AMP, the kinetic constants reflect step 3 of the E1 reaction involving formation of the final ternary complex (Haas, A. L. and Rose, I. A. J. Biol. Chem., .supra, 1982).

carboxypeptidase B = experiment: pI shift assay (isoelectric focusing after carboxypeptidase B) for intact carboxyl terminal glycine dipeptide
Excerpt: Previous work has shown that the carboxyl terminal glycine dipeptide of ubiquitin is acutely sensitive to cleavage by trypsin-like activities (Haas, A. L., et al., J. Biol. Chem. 260:4694-4703, 1985; Wilkinson, K. D. and Audhya, T. K., J. Biol. Chem. 256:9235-9241, 1981). […] The specificity of carboxypeptidase B for lysine and arginine precludes a similar pI shift for intact ubiquitin in which R74 is masked by the glycine dipeptide (Haas, A. L., et al., supra, 1985).

[2] = test system: periplasmic carboxypeptidase in E. coli BL21 (DE3) extracts; format: biochemical
Description: The pI shift upon incubation of ubiquitin with carboxypeptidase B was used as a convenient assay to test for carboxyl terminal glycine dipeptide processing in E. coli BL21 (DE3) extracts.
We tested a variety of metal salts for the ability to inhibit ubiquitin inactivation.

[3] = test system: A549 human lung carcinoma cell extract; experiment: In vitro conjugation of 125I-UCRP to cellular proteins; format: biochemical; conditions: for inhibition of 125I-UCRP conjugation by excess unlabeled protein: isotope dilution, parallel incubations
Description: Confluent monolayer cultures of A549 human lung carcinoma cells were grown in Dulbecco's modified Eagle's medium supplemented with 10% (v/v) heat-inactivated fetal bovine serum. Cultures were maintained at 37° C. in a humidified 5% CO2 atmosphere. Cultures of A549 cells were induced by adding IFNβ to a final concentration of 1000 IU/ml (Loeb, K. R. and Haas, A. L., supra, 1992). Following 24 hours induction, cells were rinsed twice with PBS then harvested by scraping directly into 50 mM Tris-Cl (pH 7.6) containing 2 mMATP, 10 mM MgCl2, and 1 mM DTT (100 μl/100 mm plate). The cells were then briefly sonicated and the extracts used without further fractionation.

[4] = target: T1, ubiquitin activating enzyme (E1) (Oryctolagus cuniculus, UniProt Q29504); experiment: Stoichiometry and kinetics of E1-bound adenylate formation (TCA-precipitable radioactivity with [2,8-3H]ATP); format: biochemical; conditions: for [3H]adenylate formation: 1 pmol of E1, inorganic pyrophosphatase
T1 construct: from rabbit reticulocytes, rabbit liver, and human erythrocytes; from tissue; host or cells: rabbit reticulocytes (inferred for this assay)
T1 sequence (Q29504 1-1058): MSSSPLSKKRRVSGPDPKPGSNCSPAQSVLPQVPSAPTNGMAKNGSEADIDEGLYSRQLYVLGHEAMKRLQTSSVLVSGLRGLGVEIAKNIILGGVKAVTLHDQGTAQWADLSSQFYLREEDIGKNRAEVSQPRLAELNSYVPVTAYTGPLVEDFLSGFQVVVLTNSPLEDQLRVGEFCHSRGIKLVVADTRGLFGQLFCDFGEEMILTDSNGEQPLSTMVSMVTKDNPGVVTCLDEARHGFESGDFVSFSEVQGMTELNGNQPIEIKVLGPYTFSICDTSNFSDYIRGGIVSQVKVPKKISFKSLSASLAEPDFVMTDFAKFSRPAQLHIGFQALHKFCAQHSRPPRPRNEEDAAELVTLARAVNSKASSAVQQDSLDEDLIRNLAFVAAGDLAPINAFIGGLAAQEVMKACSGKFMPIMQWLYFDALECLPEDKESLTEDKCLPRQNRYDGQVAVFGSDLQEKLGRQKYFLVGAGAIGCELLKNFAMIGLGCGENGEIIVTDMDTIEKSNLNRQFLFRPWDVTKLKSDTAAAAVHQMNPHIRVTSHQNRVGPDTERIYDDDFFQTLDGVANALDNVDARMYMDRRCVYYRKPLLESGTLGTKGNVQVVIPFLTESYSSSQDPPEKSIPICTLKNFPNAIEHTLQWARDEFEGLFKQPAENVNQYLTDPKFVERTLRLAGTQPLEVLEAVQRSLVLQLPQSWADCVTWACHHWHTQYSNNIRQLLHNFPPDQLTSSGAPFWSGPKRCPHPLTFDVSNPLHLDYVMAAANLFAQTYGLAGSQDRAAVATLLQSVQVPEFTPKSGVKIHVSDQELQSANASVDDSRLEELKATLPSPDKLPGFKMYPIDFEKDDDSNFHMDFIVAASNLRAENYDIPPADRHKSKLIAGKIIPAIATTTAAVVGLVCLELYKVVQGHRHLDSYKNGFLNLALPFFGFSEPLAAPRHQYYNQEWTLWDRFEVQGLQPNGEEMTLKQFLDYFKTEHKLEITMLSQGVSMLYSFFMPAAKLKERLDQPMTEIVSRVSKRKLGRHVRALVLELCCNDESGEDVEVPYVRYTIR
Excerpt: Recent studies by Burch and Haas have shown that mutagenesis of specific ubiquitin residues sufficiently compromises binding of the resulting adenylate within the E1 active site to allow dissociation of the intermediate (Burch, T. J. and Haas, A. L., supra, 1994). The free but not the bound pool of ubiquitin [^3 H]adenylate is sensitive to cleavage by ubiquitin carboxyl terminal hydrolase (Burch, T. J. and Haas, A. L., supra, 1994; Pickart, C. M. and Rose, I. A., J. Biol. Chem. 260:7903-7910,1985).

[5] = test system: rabbit reticulocyte ubiquitin activating enzyme (E1); conditions: cited from earlier work
[6] = test system: A549 human lung carcinoma cell extract; conditions: previous preparations, Loeb and Haas 1992; Loeb 1993; cited from earlier work

UCRP generated from UCRP-R: Intact UCRP resulting from removal of the arginine cap of purified UCRP-R
K1/2 ([1]; UCRP 5 to 50 μM, 20 nM E1, 37° C., absence of added AMP (step 3)): 24 µM
pI shift upon incubation with carboxypeptidase B (carboxypeptidase B): absence of a pI shift

[Cl][Hg][Cl] [HgCl2]
inhibiting UCRP inactivation [2]: effective

O=C(O)CN(CCN(CC(=O)O)CC(=O)O)CC(=O)O [EDTA]
rate of ubiquitin inactivation [2]: stimulated

[Cl-].[Cl-].[Co+2] [CoCl2]
ubiquitin and UCRP glycine dipeptide excision ([2]; 5 mM): quantitatively blocks
inhibiting ubiquitin inactivation ([2]; among the metal salts tested): most effective

^125 I-UCRP: Intact UCRP isolated in the presence of CoCl2, labeled with 125I
dependence of conjugation on ATP and ATP regenerating system ([3]; both extracts): absolutely dependent
rate of conjugation to cellular proteins ([3]; extracts from A549 cultures induced 24 hours with 1000 IU/ml interferon-β (+IFN), versus uninduced): significantly greater
rate of conjugation to cellular proteins ([3]; extracts from uninduced cells (-IFN), 90 minutes incubation): low but measurable rate

ubiquitin cross-reactive protein [UCRP]
K1/2 [1]: 24 µM
substrate inhibition [1]: no substrate inhibition
inhibition of 125I-UCRP conjugation by excess unlabeled protein [3]: marked inhibition
first order rate constant of [3H]adenylate formation [4]: 0.42 min⁻¹
[3H]adenylate formation ([4]; after 5 minutes): 0.11 pmol

ubiquitin
inhibition of 125I-UCRP conjugation by excess unlabeled protein [3]: not
K1/2 ([5]; step 3 of ubiquitin-supported reaction, values taken from Haas and Rose 1982): 1.2 µM
substrate inhibition ([5]; ubiquitin at high concentrations, Haas and Rose 1982): pronounced substrate inhibition
kcat ([5]; ubiquitin-supported reaction, values taken from Haas and Rose 1982): 9.6 s⁻¹
first order rate constant of [3H]adenylate formation [4]: ≥ 6 min⁻¹
[3H]adenylate formation ([4]; within a 1 minute incubation): equivalent amount

[Cl][Cd][Cl] [CdCl2]
inhibiting UCRP inactivation [2]: effective

recombinant ^125 I-UCRP: Radioiodinated recombinant UCRP of the previous, proteolytically inactivated preparations
conjugation when added to fresh extracts of A549 cells [6]: unable to demonstrate conjugation

pure intact native UCRP: Pure intact native UCRP, K1/2 from Narasimhan et al. 1996
K1/2 ([5]; pure intact native UCRP, Narasimhan et al. 1996 in press): 24 µM
